Source: patent publication US10329262B2, “Quinazolinone antibiotics” (priority 2013, dated 2019)
Converted amounts (≈) assume the structure as drawn.

Columns and labels:
S. aureus (ATCC 29213) = test: Macromolecular synthesis assays; format: cell-based, Staphylococcus aureus; conditions: Staphylococcus aureus, ATCC29213; positive control, 16 μg/mL; read-out: Inhibition of cell-wall (peptidoglycan) biosynthesis
Excerpt: Mechanism of Action of the Quinazolinones. The mode of action of 2 was investigated by macromolecular synthesis assays in S. aureus in the logarithmic phase, which monitor incorporation of radiolabeled precursors [methyl-^3H]-thymidine, [5-^3H]-uridine, L-[4,5-^3H]-leucine, or D-[2,3-^3H]-alanine into DNA, RNA, protein, or cell wall (peptidoglycan), respectively. Inhibition of radiolabeled precursor incorporation by 2 at a concentration of half the MIC was compared with those of known inhibitors of each pathway (ciprofloxacin, rifampicin, tetracycline, and fosfomycin, respectively).
The mode of action of 2 was investigated by macromolecular synthesis assays in S. aureus in the logarithmic phase (Miller, A A et al. Antimicrob. Agents Chemother. 52, 2806-12 (2008)), which monitor incorporation of radiolabeled precursors [methyl-^3H]-thymidine, [5-^3H]-uridine, L-[4,5-^3H]-leucine, or D-[2,3-^3H]-alanine into DNA, RNA, protein, or cell wall (peptidoglycan), respectively.
The incorporation of radiolabeled precursors—[methyl-^3H]-thymidine, [5-^3H]-uridine, L-[4,5-^3H]-leucine, or D-[2,3-^3H]-alanine—into DNA, RNA, protein, or peptidoglycan, respectively, in logarithmically growing S. aureus (ATCC 29213) was measured using a previously published method, with aliquots taken every 20 min over a 120-min incubation period (Wilson et al., Antimicrob. Agents Chemother. 39, 1925-33 (1995)).

[1] = system: S. aureus ATCC 29213 (MSSA); test: MIC, CLSI broth microdilution, S. aureus ATCC 29213; format: cell-based, Staphylococcus aureus; conditions: for MIC (w/ BSA): S. aureus ATCC 29213, in the presence of bovine serum albumin; for MIC: S. aureus strain ATCC 29213 (MSSA)
Procedure: (§1) MICs were evaluated following the CLSI microdilution method in BBL™ Mueller-Hinton II broth (Wikler et al., Clinical Laboratory Standards Institute Document M7-A7, 29 (2009)). Briefly, two-fold serial dilutions of compound were prepared in triplicate in 96-well plates and inoculated with 5×10^5 cfu/mL of the bacterial suspension. Plates were incubated at 37° C. for 16-20 hours.

S. aureus NRS100 = test: MIC, CLSI broth microdilution, S. aureus NRS100; format: cell-based, Staphylococcus aureus; conditions: Table 2, S. aureus NRS100
Procedure: as §1

S. aureus NRS119 = test: MIC, CLSI broth microdilution, S. aureus NRS119; format: cell-based, Staphylococcus aureus; conditions: Table 2, S. aureus NRS119
Procedure: as §1

S. aureus NRS120 = test: MIC, CLSI broth microdilution, S. aureus NRS120; format: cell-based, Staphylococcus aureus; conditions: Table 2, S. aureus NRS120
Procedure: as §1

S. aureus VRS1 = test: MIC, CLSI broth microdilution, S. aureus VRS1; format: cell-based, Staphylococcus aureus; conditions: Table 2, S. aureus VRS1
Procedure: as §1

S. aureus VRS2 = test: MIC, CLSI broth microdilution, S. aureus VRS2; format: cell-based, Staphylococcus aureus; conditions: Table 2, S. aureus VRS2
Procedure: as §1

[2] = system: S. epidermidis ATCC 35547; test: MIC, CLSI broth microdilution, S. epidermidis ATCC 35547; format: cell-based; conditions: Table 2, S. epidermidis ATCC 35547
Procedure: as §1

[3] = system: S. haemolyticus ATCC 29970; test: MIC, CLSI broth microdilution, S. haemolyticus ATCC 29970; format: cell-based; conditions: Table 2, S. haemolyticus ATCC 29970
Procedure: as §1

MRSA ATCC 27660 = test: Mouse peritonitis model of MRSA infection; format: in vivo, mice; conditions: n = 6, 48 h
Procedure: We evaluated several compounds in in vivo mouse infection models, as well as in pharmacokinetic (PK) studies in mice (Table 1). The in vivo efficacy was determined using the rapid mouse peritonitis model of infection, in which the end point is death or survival in 48 hours. We initially dosed the compounds intravenously (iv) at a single dose level. If the compound has good in vivo efficacy after iv administration, we then evaluated efficacy at five dose levels. We also investigated in vivo efficacy after oral (po) administration.
Groups (n=6/group) of mice were infected with MRSA (0.5 mL of ATCC 27660 at a final concentration of 5×10^7 CFU/mL in 5% porcine mucin) intraperitoneally (ip). Following infection, mice were given iv doses by tail vein injection of compound 2, vancomycin (5 mg/kg, positive control), or vehicle at 30 min and 4.5 h after infection. The number of surviving mice was monitored for 48 h. The negative control (vehicle) typically results in the death of all mice. Quinazolinone 2 was dissolved in saline, sterile-filtered, and administered at doses of 2.5, 5, 7.5, 10, 20, and 30 mg/kg. The ED50 value was calculated using GraphPad prism 5.

Pharmacokinetics in mice = conditions: Table 1, ICR female mice, single dose iv
Procedure: We conducted first fast PK studies (n=2 mice per time point, 5 time points) dosing the compounds iv, followed by full PK studies for selected compounds (n=3 mice per time point, 10-12 time points per route of administration, iv and po).
A single dose of compound 2 was administered to mice (n=3 per time point) by tail vein injection or by oral gavage at 10 mg/kg. Blood was collected by cardiac puncture in heparinized syringes at 2, 5, 20, and 40 min and at 1, 2, 3, 4, 8, 18, and 24 h after iv dosing and at 0.5, 1, 2, 3, 4, 6, 9, 24, and 30 h after po dosing. Blood was centrifuged to obtain plasma. A 50-μL aliquot of plasma was mixed with 100 μL of acetonitrile containing internal standard (5 μM final concentration), followed by centrifugation at 20,000 g for 15 min. The supernatant was analyzed by reverse-phase UPLC. PK parameters were calculated as described in the Plasma protein binding and Pharmacokinetics sections below (see also Gooyit et al. J. Med. Chem. 54, 6676-6690 (2011)).
The area under the concentration-time curve up to the last quantifiable sampling time (AUC0-last) was calculated by the trapezoidal rule. AUC0-∞ was calculated as AUC0-last+(Clast/k), where Clast is the concentration at the last quantifiable sampling time and k is the elimination rate constant. The concentration at time=0 (C0) was estimated from the first sampling times by back-extrapolation using log-linear regression analysis. Half-lives (t1/2α and t1/2β) were estimated from the linear portion of the initial or terminal concentration-time data by linear regression, where the slope of the line was the rate constant k and t1/2α=ln 2/k. Volume of distribution (Vd) was calculated as the dose divided by the initial concentration (C0). Clearance (CL) was calculated from the dose divided by AUC0-∞. Oral bioavailability (F) was calculated by dividing the AUCpo by the AUCiv, as equivalent iv and po doses were administered.

S. aureus NRS70 = test: MIC, broth microdilution, S. aureus NRS70; format: cell-based, Staphylococcus aureus; conditions: Staphylococcus aureus, NRS70; Table 3, single agent; read-out: MIC NRS70
Procedure: as §1

S. aureus NRS123 = test: MIC, broth microdilution, S. aureus NRS123; format: cell-based; conditions: Staphylococcus aureus, NRS123; Table 3, single agent; read-out: MIC NRS123
Procedure: as §1

[4] = 5 mg/kg iv at 30 min and 4.5 hr after infection

Row | SMILES | MIC (w/ BSA) [1] [µg/mL] | MIC [1] [µg/mL] | In Vivo Efficacy (survived/total mice) (MRSA ATCC 27660; [4]) | AUC (iv) (Pharmacokinetics in mice) | CL (Pharmacokinetics in mice) | Vd (Pharmacokinetics in mice) | also measured
1 | C[C@@H]1O[C@@H]1P(=O)(O)O [fosfomycin, reference compound] |  |  |  |  |  |  | inhibition at 16 µg/mL (S. aureus (ATCC 29213)): 64 ± 8%
2 | CC(=O)Nc1cccc(-n2c(/C=C/c3ccc(C#N)cc3)nc3ccccc3c2=O)c1 [Compound 8] | 2 | 0.25 (≈ 0.615 µM) | 1/6 @ 5 mg/kg | AUC = 1187 μg.min/mL | CL = 131 mL/min/kg | Vd = 107 mL | MIC (S. aureus NRS100): 1 µg/mL (≈ 2.46 µM); MIC (S. aureus NRS119): 0.25 µg/mL (≈ 0.615 µM); MIC (S. aureus NRS120): 0.25 µg/mL (≈ 0.615 µM); MIC (S. aureus VRS1): 4 µg/mL (≈ 9.84 µM); MIC (S. aureus VRS2): 0.125 µg/mL (≈ 0.308 µM); MIC [2]: 0.06 µg/mL (≈ 0.148 µM); MIC [3]: 0.25 µg/mL (≈ 0.615 µM)
3 | CO/N=C(\C(=O)N[C@@H]1C(=O)N2C(C(=O)[O-])=C(C[N+]3(C)CCCC3)CS[C@H]12)c1csc(N)n1 [cefepime] |  |  |  |  |  |  | MIC (S. aureus NRS70): 64 µg/mL (≈ 133 µM); MIC (S. aureus NRS123): 32 µg/mL (≈ 66.6 µM)
4 | CS(=O)(=O)Nc1cccc(-n2c(/C=C/c3ccc(F)cc3)nc3ccccc3c2=O)c1 [Compound 6] | 1 | 0.125 (≈ 0.287 µM) |  | AUC = 819 μg.min/mL | CL = 28.0 mL/min/kg | Vd = 91.8 mL | In Vivo Efficacy (survived/total mice) (MRSA ATCC 27660; 10 mg/kg iv at 30 min and 4.5 hr after infection): 0/6 @ 10 mg/kg
5 | Cc1nc2ccccc2c(=O)o1 [Compound 3] | 4 | 0.25 (≈ 1.55 µM) | 1/6 @ 5 mg/kg | AUC = 466 μg.min/mL | CL = 10.7 mL/min/kg | Vd = 8.9 mL | 
